Test results taken from patent US20170081724A1, “METHOD AND KITS FOR DETERMINING SENSITIVITY TO CANCER TREATMENT” (Dana-Farber Cancer Institute, Inc., priority 2014, published 2017).

Test system: ERCC2-deficient fibroblast cell line (GM08207) expressing GFP, WT ERCC2 or mutant ERCC2
Experiment: Cisplatin sensitivity assay (CellTiter-Glo survival, 120 hours)
Assay type: cell-based, human
Description: The expression plasmids harboring WT ERCC2, GFP (negative control), or mutant ERCC2s were expanded in E. coli TOP10 cells (Invitrogen) and purified using an anion exchange kit (Qiagen). Lentiviruses were propagated in 293T cells by cotransfection of the expression plasmid with plasmids encoding viral packaging and envelope proteins. Unless otherwise noted, all human cell lines were cultured in Dulbecco's Modified Eagle's Medium (Invitrogen) supplemented with 10% fetal bovine serum (Sigma) and 1% L-glutamine and grown at 37° C. and 5% CO2. The 293T cell supernatants containing virus were collected after 48 hours, filtered twice (0.45 μm syringe filter, Millipore), then added directly to growing cultures of an SV40-transformed pseudodiploid ERCC2-deficient fibroblast cell line derived from an XP patient of genetic complementation group D (GM08207; Coriell Institute). Polybrene® (Sigma) was added to a final concentration of 8 μg/ml to increase the efficiency of infection. […]
Cells were transferred to 96-well plates at a density of 500 cells per well. […] After 120 hours, CellTiter-Glo reagent (Promega) was added to the wells and the plates were scanned using a luminescence microplate reader (BioTek). […] IC50 concentrations were calculated using a four parameter sigmoidal model and plots were generated using Prism (GraphPad). […]

N.N.[Cl][Pt][Cl] [cisplatin]
cisplatin IC50 (WT ERCC2 complemented cell line compared with ERCC2-deficient parent cell line, P=0.0003, ANOVA): significantly higher
cisplatin IC50 (each mutant ERCC2 cell line (five mutants) compared with parent ERCC2-deficient cell line): not significantly different
